In patent US20120269830A1, “CONJUGATES WITH IMPROVED PHARMACOKINETIC PROPERTIES” (priority 2009, published 2012):

Tests used:
[1] = target: Dipeptidyl protease IV (DPP-IV) (Homo sapiens, UniProt P27487); settings: cited from earlier work
db/db mice = test: Reduction of fasting blood glucose in db/db mice; assay type: in vivo; settings: intravenous; for blood glucose at 4 and 8 hours post treatment: food access after 4 hours
Experimental: Synthetic GLP-1 peptide and recombinant GLP-1 Surrobody fusions were evaluated for their ability to lower plasma glucose in db/db mice. To reduce the effects of in vivo DPPIV proteolysis during the time course of the study GLP-1 both synthetic and recombinant GLP-1 functionally null Surrobodies used a GLP-1 variant containing a serine substitution for alanine at position 8 that reduces DPPIV inactivation. 8 db/db mice were used per group: Control SgG (3 mg/kg) (functionally null SgG that lacks the GLP-1 conjugate); GLP-1 peptide (0.8 mg/kg); GLP-1 SgG (1 mg/kg); and GLP-1 (3 mg/kg). Essentially db/db mice were matched by weight and relative blood glucose levels. Next, the subjects were injected intravenously with test article and isolated with access to water, but not food. Glucose levels were monitored by handheld glucometer after 1 hour and 4 hours. After 4 hours the mice were allowed free access to both food and water. An additional reading was made at 8 hours following drug administration.

Sequence of Dipeptidyl protease IV (DPP-IV) (P27487 whole entry): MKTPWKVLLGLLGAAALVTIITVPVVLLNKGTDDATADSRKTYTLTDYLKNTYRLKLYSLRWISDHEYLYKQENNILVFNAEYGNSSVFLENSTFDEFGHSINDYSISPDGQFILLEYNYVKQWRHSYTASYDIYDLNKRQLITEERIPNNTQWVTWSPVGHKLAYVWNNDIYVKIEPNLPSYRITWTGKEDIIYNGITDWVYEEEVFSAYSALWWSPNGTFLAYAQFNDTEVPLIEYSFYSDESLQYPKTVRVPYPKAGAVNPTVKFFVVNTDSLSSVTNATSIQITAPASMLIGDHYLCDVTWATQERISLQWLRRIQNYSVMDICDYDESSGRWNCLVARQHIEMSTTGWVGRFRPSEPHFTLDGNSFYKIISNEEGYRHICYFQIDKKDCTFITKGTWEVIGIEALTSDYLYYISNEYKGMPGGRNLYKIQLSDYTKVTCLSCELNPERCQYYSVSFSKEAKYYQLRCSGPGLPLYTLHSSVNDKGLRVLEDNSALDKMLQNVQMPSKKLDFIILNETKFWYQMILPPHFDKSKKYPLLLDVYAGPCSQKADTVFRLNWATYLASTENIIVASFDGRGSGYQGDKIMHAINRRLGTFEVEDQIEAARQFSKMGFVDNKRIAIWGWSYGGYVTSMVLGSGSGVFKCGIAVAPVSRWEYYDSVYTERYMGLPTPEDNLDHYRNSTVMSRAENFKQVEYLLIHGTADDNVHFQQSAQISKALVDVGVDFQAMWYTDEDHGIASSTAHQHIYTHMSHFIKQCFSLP

| Sequence | resistance to proteolytic inactivation by DPP-IV [1] | blood glucose after 1 hour (db/db mice; fasted, GLP-1 SgG 1 and 3 mg/kg, GLP-1 peptide 0.8 mg/kg) | blood glucose at 4 and 8 hours post treatment (db/db mice; GLP-1 SgG 1 and 3 mg/kg, GLP-1 peptide 0.8 mg/kg) | blood glucose at 4 and 8 hours post treatment (db/db mice; GLP-1 SgG 1 and 3 mg/kg, GLP-1 peptide 0.8 mg/kg, listed as GLP-1 peptide control) | time to inactivation by DPP-IV [1] [min] | blood glucose reduction overall, through 8 hours (db/db mice; 1 and 3 mg/kg, FIG. 17) |
| --- | --- | --- | --- | --- | --- | --- |
| HSEGTFTSDVSSYLEGQAAKEFIAWLVKGRG [GLP-1 peptide, GLP-1 receptor agonist with serine for alanine substitution at position 8] | markedly resistant | considerable blood glucose reduction | started to approach levels of control Surrobody | unable to maintain the same degree of blood glucose levels | – | – |
| HAEGTFTSDVSSYLEGQAAKEFIAWLVKGRG [GLP-1] | – | – | – | – | ≤ 2 | acutely reduces blood glucose through 8 hours |
